Test results from EP2638113B1, “THIOPHENE AZO DYES AND LAUNDRY CARE COMPOSITIONS CONTAINING THE SAME” (Milliken & Company, priority 2010, dated 2011).

Assay: Aqueous partition value of a dye (water/1-octanol partitioning, absorbance at λmax)
Format: physicochemical
Settings: Aqueous Partition Value (APV) = (Af/Ai) × 100%, deionized water / 1-octanol, 10.0 mL each
Description: • I. Method for Determining the Aqueous Partition Value of a Dye Dissolve in deionized water to a final volume of 10.0 mL an amount of dye sufficient to provide a solution absorbance value between 0.25 and 1.0, said absorbance being determined at the dye λmax between 400 nm and 750 nm, using a cuvette with 1.0 cm path length. Measure the absorbance of the sample at the dye λmax in a UV/Vis spectrophotometer, then transfer the entire 10.0 mL solution to a 50.0 mL plastic centrifuge tube. Add 10.0 mL of 1-octanol, cap the tube, and mix vigorously for 30 seconds using a Vortex™ mixer. Leave the tube standing undisturbed until the layers cleanly phase separate. […] Analyze the solution as before, and quantify the absorbance loss at λmax as "% of Dye Remaining in Aqueous Layer" as detailed below: % of Dye Remaining in Aqueous Layer = Aqueous Partition Value (APV) = (Af/Ai) × 100% [formula] wherein Ai is the initial solution absorbance at λmax and Af is the final solution absorbance at λmax. • II. […] After such washing step separately rinse the swatches in tap water and air dry the swatches in the dark. • e.) After rinsing and drying each swatch, the hueing efficiency, DE*eff, of the dye is assessed by determining the L*, a*, and b* value measurements of each swatch using a Hunter LabScan XE reflectance spectrophotometer with D65 illumination, 10° observer and UV filter excluded. […]

Row | SMILES | % Dye in Water Layer [%]
1 | CCN(CCOCCOCCOCCOCCn1cc[n+](C)c1)c1ccc(/N=N/c2sc(C#N)c(C)c2C#N)c(C)c1 [Example 13] | 20
2 | CCN(CCOCCOCCOCCOCC[N+](C)(C)CCCS(=O)(=O)[O-])c1ccc(/N=N/c2sc(C#N)c(C)c2C#N)c(C)c1 [Example 15] | 3
